Legend:
[1] = system: HUVEC; experiment: HUVEC migration (chemotaxis chamber) assay; format: cell-based, human
Experimental: FIG. 4. ApoM-bound S1P activates S1P1-mediated intracellular signaling pathways and affects migration of HUVEC. (A) Confocal microscopy of HEK293 cells stably expressing S1P1-GFP. Cells were serum starved, stimulated for 1 h with indicated ligands, fixed and imaged. ApoM^+HDL (equivalent to ˜100 nM S1P as determined by LC/MS/MS) or ApoM^−HDL was used at 100 μg/ml. Fatty acid free BSA and r-apoM were complexed with S1P and used at the final concentration of 100 nM (equimolar for both protein and lipid). Scale bar, 20 μm. […] Activation of p44/42, and Akt was examined by western blot analysis using phospho-specific antibodies. (C) HUVEC were serum starved and pre-treated with 1 μM VPC44116 for 30 min where indicated and subjected to migration assay with 10 μg/ml apoM^+HDL (10 nM S1P) or 10 μg/ml apoM^−HDL or 10 nM albumin-S1P. Data are mean±SD, n=3. * p<0.01. (D) Microscopy of HUVEC that were serum starved and stimulated with 100 μg/ml apoM^+HDL, apoM^−HDL, 100 nM albumin-S1P, r-apoM-S1P or 100 nM S1P-free r-apoM for 1 h. […] Scale bar, 20 μm. […]
General Methods. […] Numerical differences were analyzed with two-tailed Student's t test.
Migration Assays. […] The filter was scanned, and the color density of each well was quantified using ImageJ software. […]

[2] = target: T1, S1P1 receptor (Homo sapiens, UniProt P21453); experiment: S1P1 internalization in HEK293 cells stably expressing S1P1-GFP; format: cell-based; details: stimulated 1 h; HDL 100 μg/ml; S1P complexes 100 nM
T1 construct: expressed in transfected cells
Experimental: (§1) FIG. 4. ApoM-bound S1P activates S1P1-mediated intracellular signaling pathways and affects migration of HUVEC. (A) Confocal microscopy of HEK293 cells stably expressing S1P1-GFP. Cells were serum starved, stimulated for 1 h with indicated ligands, fixed and imaged. ApoM^+HDL (equivalent to ˜100 nM S1P as determined by LC/MS/MS) or ApoM^−HDL was used at 100 μg/ml. Fatty acid free BSA and r-apoM were complexed with S1P and used at the final concentration of 100 nM (equimolar for both protein and lipid). Scale bar, 20 μm. […] Activation of p44/42, and Akt was examined by western blot analysis using phospho-specific antibodies. (C) HUVEC were serum starved and pre-treated with 1 μM VPC44116 for 30 min where indicated and subjected to migration assay with 10 μg/ml apoM^+HDL (10 nM S1P) or 10 μg/ml apoM^−HDL or 10 nM albumin-S1P. Data are mean±SD, n=3. * p<0.01. (D) Microscopy of HUVEC that were serum starved and stimulated with 100 μg/ml apoM^+HDL, apoM^−HDL, 100 nM albumin-S1P, r-apoM-S1P or 100 nM S1P-free r-apoM for 1 h. […] Scale bar, 20 μm. HUVEC were serum starved and stimulated for 5 min with 30 nM albumin-S1P, r-apoM-S1P, 10 μg/mL ApoM+ HDL, or 30 nM S1P-free r-apoM (E) or with increasing concentrations of albumin or r-apoM-S1P (F). […]
(§2) General Methods. […] Numerical differences were analyzed with two-tailed Student's t test. […]

[3] = system: HUVEC; experiment: adherens junction assembly assay (VE-cadherin immunostaining) in HUVEC; format: cell-based, human; details: HUVEC stimulated 1 h; HDL 100 μg/ml; S1P complexes or r-apoM 100 nM
Experimental: as §1, with “(F). Activation of p44/42 and Akt was examined by Western blot analysis using phospho-specific antibodies.” for “(F).”

[4] = target: T2, murine recombinant apoM (r-apoM) (Mus musculus, UniProt Q9Z1R3); experiment: intrinsic fluorescence quenching of r-apoM by S1P; format: binding; details: r-apoM 0.7 μM; S1P 0-3.2 μmol/L; excitation 295 nm, emission 345 nm
T2 construct: A truncated mouse r-apoM containing the lipocalin domain but lacking the hydrophobic signal peptide was produced in Escherichia coli; made in house; host or cells: Escherichia coli
Experimental: FIG. 3. […] A truncated mouse r-apoM containing the lipocalin domain but lacking the hydrophobic signal peptide was produced in Escherichia coli. The r-apoM (0.7 μM) was incubated with increasing concentrations of S1P (final concentration: 0-3.2 μmol/L). The intrinsic fluorescence of apoM was measured with excitation at 295 nm and emission at 345 nm. The data are mean±SEM (n=3).
Intrinsic fluorescence quenching was studied after addition of S1P to 0.7 μM murine recombinant apoM (r-apoM) (SEVVANA et al., J. Mol. Biol, 393:920-936 (2009)). Because it is possible that murine r-apoM binds and contains myristic acid in a manner similar to that of its human counterpart (SEVVANA et al., J. Mol. Biol, 393:920-936 (2009)), the binding data are reported as IC50 values. This approach also allows S1P binding to murine r-apoM to be compared directly with the previous data on human apoM-S1P binding.

[5] = target: T3, recombinant human apoM (Homo sapiens, UniProt O95445); details: recombinant human apoM expressed in E. coli; SEVVANA et al. 2009; read-out: IC50 for displacement of myristic acid from apoM; cited from earlier work
T3 construct: host or cells: E. coli

[6] = system: endogenous S1P1 receptor; experiment: p44/42 and Akt activation in HUVEC (western blot, phospho-specific antibodies); format: cell-based, human; details: 1 μM VPC44116 pre-treatment 30 min
Experimental: as §1, §2

T3 sequence (O95445 whole entry): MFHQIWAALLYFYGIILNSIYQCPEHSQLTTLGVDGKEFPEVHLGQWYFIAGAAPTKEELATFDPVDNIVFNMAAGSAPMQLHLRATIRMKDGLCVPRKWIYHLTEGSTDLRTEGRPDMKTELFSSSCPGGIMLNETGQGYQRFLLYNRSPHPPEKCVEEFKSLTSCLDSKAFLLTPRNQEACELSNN
T2 sequence (Q9Z1R3 22-190): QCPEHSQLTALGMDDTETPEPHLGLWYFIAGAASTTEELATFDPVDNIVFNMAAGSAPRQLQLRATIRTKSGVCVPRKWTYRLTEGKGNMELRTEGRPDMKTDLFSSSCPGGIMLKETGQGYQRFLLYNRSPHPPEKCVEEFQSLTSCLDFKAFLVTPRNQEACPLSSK
T1 sequence (P21453 whole entry): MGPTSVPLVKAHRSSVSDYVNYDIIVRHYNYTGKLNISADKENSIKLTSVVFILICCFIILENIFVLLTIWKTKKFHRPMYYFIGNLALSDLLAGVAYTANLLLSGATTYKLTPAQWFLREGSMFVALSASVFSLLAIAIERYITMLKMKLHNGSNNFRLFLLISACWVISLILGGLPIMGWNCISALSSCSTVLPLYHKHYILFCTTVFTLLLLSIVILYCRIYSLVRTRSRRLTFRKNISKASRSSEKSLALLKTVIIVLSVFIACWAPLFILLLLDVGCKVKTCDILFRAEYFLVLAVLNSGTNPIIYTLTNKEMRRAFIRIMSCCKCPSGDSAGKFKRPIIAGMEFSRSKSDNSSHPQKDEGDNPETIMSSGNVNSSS

For “albumin-bound S1P: S1P complexed with equi-molar fatty acid free bovine serum albumin, used as a positive control [reference compound]”, the “chemotaxis of HUVEC toward chemoattractant” value ([1]; serum-starved HUVEC, 4 h at 37° C.) was “worked as chemoattractants in a concentration-dependent manner”, the “internalization of GFP-S1P1 receptor” value [2] was “robust internalization” and the “adherens junction and F-actin formation” value [3] was “well-spread, contained F-actin and formed adherens junctions”.
For `CCCCCCCCCCCCC/C=C/[C@@H](O)[C@@H](N)COP(=O)(O)O` [S1P, Sphingosine-1-phosphate], the “quenching of intrinsic fluorescence of mouse r-apoM” value [4] is given as “quenches the intrinsic fluorescence” and the IC50 [5] is given as 900 nM.
With `CCCCCCCCc1cccc(NC(=O)[C@H](N)CCP(=O)(O)O)c1` [VPC44116] the “effect of S1P1 antagonist pre-treatment on apoM+HDL-stimulated chemotaxis” value ([1]; 1 μM VPC44116 for 30 min, 10 μg/ml apoM+HDL) was “abolished”, the “effect of S1P1 antagonist on apoM+HDL-induced p44/42 and Akt phosphorylation” value [6] was “essentially abolished” and the “effect of S1P1 antagonist on cells stimulated by FCS” value ([6]; FCS stimulation) was “no inhibitory effects”.

From patent US9592268B2, “Endothelium protective materials and methods of use” (CORNELL UNIVERSITY, priority 2011, dated 2017)
